Patent US8691991B2 (priority 2004, dated 2014)

What follows are molecules tested on Pseudotyped HIV vector (assay: Pseudotyped HIV vector expressing luciferase reporter assay). Settings: Human immunodeficiency virus 1.
Format: cell-based
Experimental: Pseudotyped HIV Vector Expressing Luciferase Reporter Assay
Expression of luciferase reporter following viral integration was performed essentially as described in Jármy, G. et al., J. Medical Virology, 64:223-231, 2001.

| SMILES | IC50 |
| --- | --- |
| COCCN(C)C(=O)Cn1c(=O)c(C(=O)NC(C)CO)c(O)c2ncc(Cc3ccc(F)cc3)cc21 (racemic) [Example 105, (±)-7-[(4-Fluorophenyl)methyl]-4-hydroxy-N-[2-hydroxy-1-methylethyl]-1-(2-{methyl[2-(methyloxy)ethyl]amino}-2-oxoethyl)-2-oxo-1,2-dihydro-1,5-naphthyridine-3-carboxamide] | < 10 nM |
| COCCN(C)C(=O)Cn1c(=O)c(C(=O)NCC(C)O)c(O)c2ncc(Cc3ccc(F)cc3)cc21 (racemic) [Example 106, (±)-7-[(4-Fluorophenyl)methyl]-4-hydroxy-N-[(2-hydroxypropyl]-1-(2-{methyl[2-(methyloxy)ethyl]amino}-2-oxoethyl)-2-oxo-1,2-dihydro-1,5-naphthyridine-3-carboxamide] | < 10 nM |
| COCCNC(=O)c1c(O)c2ncc(Cc3ccc(F)cc3)cc2[nH]c1=O [Example 2, 7-(4-Fluorobenzyl)-4-hydroxy-N-(2-methoxyethyl)-2-oxo-1,2-dihydro-1,5-naphthyridine-3-carboxamide] | < 10 nM |
| O=C(NC1CC1)c1c(O)c2ncc(Cc3ccc(F)cc3)cc2n(CCN2CCCC2=O)c1=O [Example 9, N-Cyclopropyl-7-(4-fluorobenzyl)-4-hydroxy-2-oxo-1-[2-(2-oxopyrrolidin-1-yl)ethyl]-1,2-dihydro-1,5-naphthyridine-3-carboxamide] | < 10 nM |
| O=C(NCCN1CCOCC1)c1c(O)c2ncc(Cc3ccc(F)cc3)cc2n(CCN2CCCC2=O)c1=O [Example 10, 7-(4-Fluorobenzyl)-4-hydroxy-N-(2-morpholin-4-ylethyl)-2-oxo-1-[2-(2-oxopyrrolidin-1-yl)ethyl]-1,2-dihydro-1,5-naphthyridine-3-carboxamide] | < 10 nM |
| COCCNC(=O)c1c(O)c2ncc(Cc3ccccc3)cc2n(CC(=O)N2CCOCC2)c1=O [Example 12] | < 10 nM |
| COCCNC(=O)c1c(O)c2ncc(Cc3ccccc3)cc2[nH]c1=O [Example 17] | 10 to 25 nM |
| O=C(NCCCN1CCCC1=O)c1c(O)c2ncc(Cc3ccc(F)cc3)cc2[nH]c1=O [Example 28] | < 10 nM |
| O=C(NCCN1CCOCC1)c1c(O)c2ncc(Cc3ccc(F)cc3)cc2[nH]c1=O [Example 36, 7-[(4-Fluorophenyl)methyl]-4-hydroxy-N-[2-(4-morpholinyl)ethyl]-2-oxo-1,2-dihydro-1,5-naphthyridine-3-carboxamide] | < 10 nM |
| COCCNC(=O)c1c(O)c2ncc(Cc3ccccc3)cc2n(Cc2ccc(S(C)(=O)=O)cc2)c1=O [Example 45, 7-Benzyl-4-hydroxy-N-(2-methoxyethyl)-1-[4-(methylsulfonyl)benzyl]-2-oxo-1,2-dihydro-1,5-naphthyridine-3-carboxamide] | < 10 nM |
| COCCNC(=O)c1c(O)c2ncc(Cc3ccc(F)cc3)cc2n(CCN2CCCC2=O)c1=O [Example 49, 7-(4-Fluorobenzyl)-4-hydroxy-N-(2-methoxyethyl)-2-oxo-1-[2-(2-oxopyrrolidin-1-yl)ethyl]-1,2-dihydro-1,5-naphthyridine-3-carboxamide] | < 10 nM |
| COCCNC(=O)c1c(O)c2ncc(Cc3ccccc3)cc2n(Cc2nccn2C)c1=O [Example 50, 7-Benzyl-4-hydroxy-N-(2-methoxyethyl)-1-[(1-methyl-1H-imidazol-2-yl)methyl]-2-oxo-1,2-dihydro-1,5-naphthyridine-3-carboxamide] | < 10 nM |
| COCCNC(=O)c1c(O)c2ncc(Cc3ccccc3)cc2n(CC2CC2)c1=O [Example 54, 7-Benzyl-1-(cyclopropylmethyl)-4-hydroxy-N-(2-methoxyethyl)-2-oxo-1,2-dihydro-1,5-naphthyridine-3-carboxamide] | < 10 nM |
| COCCNC(=O)c1c(O)c2ncc(Cc3ccccc3)cc2n(Cc2nccs2)c1=O [Example 62, 7-Benzyl-4-hydroxy-N-(2-methoxyethyl)-2-oxo-1-(1,3-thiazol-2-ylmethyl)-1,2-dihydro-1,5-naphthyridine-3-carboxamide] | < 10 nM |
| COCCNC(=O)c1c(O)c2ncc(Cc3ccc(F)cc3)cc2n(Cc2ccc(S(C)(=O)=O)cc2)c1=O [Example 64, 7-(4-Fluorobenzyl)-4-hydroxy-N-(2-methoxyethyl)-1-[4-(methylsulfonyl)benzyl]-2-oxo-1,2-dihydro-1,5-naphthyridine-3-carboxamide] | < 10 nM |
| O=C(NCCN1CCOCC1)c1c(O)c2ncc(Cc3ccc(F)cc3)cc2n(CC(=O)N2CCOCC2)c1=O [Example 83, 7-[(4-Fluorophenyl)methyl]-4-hydroxy-N-[2-(4-morpholinyl)ethyl]-1-[2-(4-morpholinyl)-2-oxoethyl]-2-oxo-1,2-dihydro-1,5-naphthyridine-3-carboxamide] | 10 to 25 nM |

| SMILES | IC50 |
| --- | --- |
| COCCNC(=O)c1c(O)c2ncc(Cc3ccc(F)cc3)cc2n(CC(=O)N2CCOCC2)c1=O [Example 84, 7-[(4-Fluorophenyl)methyl]-4-hydroxy-N-[2-(methyloxy)ethyl]-1-[2-(4-morpholinyl)-2-oxoethyl]-2-oxo-1,2-dihydro-1,5-naphthyridine-3-carboxamide] | < 10 nM |
| CC(C)(CO)CNC(=O)c1c(O)c2ncc(Cc3ccc(F)cc3)cc2[nH]c1=O [Example 85, 7-[(4-Fluorophenyl)methyl]-4-hydroxy-N-(3-hydroxy-2,2-dimethylpropyl)-2-oxo-1,2-dihydro-1,5-naphthyridine-3-carboxamide] | < 10 nM |
| O=C(NCCOCCO)c1c(O)c2ncc(Cc3ccc(F)cc3)cc2[nH]c1=O [Example 86, 7-[(4-Fluorophenyl)methyl]-4-hydroxy-N-{2-[(2-hydroxyethyl)oxy]ethyl}-2-oxo-1,2-dihydro-1,5-naphthyridine-3-carboxamide] | < 10 nM |
| COCCNC(=O)c1c(O)c2ncc(Cc3ccc(F)cc3)cc2n(CC(=O)N(C)C)c1=O [Example 89, 1-[2-(Dimethylamino)-2-oxoethyl]-7-[(4-fluorophenyl)methyl]-4-hydroxy-N-[2-(methyloxy)ethyl]-2-oxo-1,2-dihydro-1,5-naphthyridine-3-carboxamide] | < 10 nM |
| CN(C)C(=O)Cn1c(=O)c(C(=O)NCCN2CCOCC2)c(O)c2ncc(Cc3ccc(F)cc3)cc21 [Example 91, 1-[2-(Dimethylamino)-2-oxoethyl]-7-[(4-fluorophenyl)methyl]-4-hydroxy-N-[2-(4-morpholinyl)ethyl]-2-oxo-1,2-dihydro-1,5-naphthyridine-3-carboxamide] | 10 to 25 nM |
| O=C(NCCCN1CCOCC1)c1c(O)c2ncc(Cc3ccc(F)cc3)cc2n(CC(=O)N2CCOCC2)c1=O [Example 93, 7-[(4-Fluorophenyl)methyl]-4-hydroxy-1-[2-(4-morpholinyl)-2-oxoethyl]-N-[3-(4-morpholinyl)propyl]-2-oxo-1,2-dihydro-1,5-naphthyridine-3-carboxamide] | 10 to 25 nM |
| O=C(NCCCN1CCCC1=O)c1c(O)c2ncc(Cc3ccc(F)cc3)cc2n(CC(=O)N2CCOCC2)c1=O [Example 94, 7-[(4-Fluorophenyl)methyl]-4-hydroxy-1-[2-(4-morpholinyl)-2-oxoethyl]-2-oxo-N-[3-(2-oxo-1-pyrrolidinyl)propyl]-1,2-dihydro-1,5-naphthyridine-3-carboxamide] | 10 to 25 nM |
| O=C(NCCO)c1c(O)c2ncc(Cc3ccc(F)cc3)cc2n(CC(=O)N2CCOCC2)c1=O [Example 95, 7-[(4-Fluorophenyl)methyl]-4-hydroxy-N-(2-hydroxyethyl)-1-[2-(4-morpholinyl)-2-oxoethyl]-2-oxo-1,2-dihydro-1,5-naphthyridine-3-carboxamide] | 10 to 25 nM |
| Cn1c(=O)c(C(=O)NCCN2CCOCC2)c(O)c2ncc(Cc3ccc(F)cc3)cc21 [Example 96, 7-[(4-Fluorophenyl)methyl]-4-hydroxy-1-methyl-N-[2-(4-morpholinyl)ethyl]-2-oxo-1,2-dihydro-1,5-naphthyridine-3-carboxamide] | < 10 nM |
| Cn1c(=O)c(C(=O)NCCCN2CCOCC2)c(O)c2ncc(Cc3ccc(F)cc3)cc21 [Example 97, 7-[(4-Fluorophenyl)methyl]-4-hydroxy-1-methyl-N-[3-(4-morpholinyl)propyl]-2-oxo-1,2-dihydro-1,5-naphthyridine-3-carboxamide] | < 10 nM |
| COCCNC(=O)c1c(O)c2ncc(Cc3ccc(F)cc3)cc2n(C)c1=O [Example 98, 7-[(4-Fluorophenyl)methyl]-4-hydroxy-1-methyl-N-[2-(methyloxy)ethyl]-2-oxo-1,2-dihydro-1,5-naphthyridine-3-carboxamide] | < 10 nM |
| Cn1c(=O)c(C(=O)NCCCN2CCCC2=O)c(O)c2ncc(Cc3ccc(F)cc3)cc21 [Example 99, 7-[(4-Fluorophenyl)methyl]-4-hydroxy-1-methyl-2-oxo-N-[3-(2-oxo-1-pyrrolidinyl)propyl]-1,2-dihydro-1,5-naphthyridine-3-carboxamide] | < 10 nM |
| Cn1c(=O)c(C(=O)NCCO)c(O)c2ncc(Cc3ccc(F)cc3)cc21 [Example 101, 7-[(4-Fluorophenyl)methyl]-4-hydroxy-N-(2-hydroxyethyl)-1-methyl-2-oxo-1,2-dihydro-1,5-naphthyridine-3-carboxamide] | < 10 nM |
| COCCNC(=O)c1c(O)c2ncc(Cc3ccc(F)cc3)cc2n(CC(=O)N2CCN(C)CC2)c1=O [Example 102, 7-[(4-Fluorophenyl)methyl]-4-hydroxy-N-[2-(methyloxy)ethyl]-1-[2-(4-methyl-1-piperazinyl)-2-oxoethyl]-2-oxo-1,2-dihydro-1,5-naphthyridine-3-carboxamide] | < 10 nM |
| COCCNC(=O)c1c(O)c2ncc(Cc3ccc(F)cc3)cc2n(CC(=O)N(C)CCOC)c1=O [Example 104, 7-[(4-Fluorophenyl)methyl]-4-hydroxy-1-(2-{methyl[2-(methyloxy)ethyl]amino}-2-oxoethyl)-N-[2-(methyloxy)ethyl]-2-oxo-1,2-dihydro-1,5-naphthyridine-3-carboxamide] | < 10 nM |
| CCOCCNC(=O)c1c(O)c2ncc(Cc3ccc(F)cc3)cc2n(CC(=O)N(C)CCOC)c1=O [Example 107, N-[2-(ethyloxy)ethyl]-7-[(4-fluorophenyl)methyl]-4-hydroxy-1-(2-{methyl[2-(methyloxy)ethyl]amino}-2-oxoethyl)-2-oxo-1,2-dihydro-1,5-naphthyridine-3-carboxamide] | < 10 nM |
